In patent US20100029685A1 (NeuroSearch A/S, priority 2006, published 2010):

Key:
[1] = molecular target: T1, human nicotinic acetylcholine receptor subtype α4β2 (Homo sapiens, UniProt P17787+P43681); assay: FLIPR nAChR α4β2 positive allosteric modulator activity; format: cell-based; details: HEK-293 cells stably expressing hα4β2; for Efficacy Response relative to Nicotine (%): maximal positively modulated response relative to maximal nicotine response (100 μM); for EC50: positive modulation of response to sub-maximal nicotine (EC20-30), peak values
T1 construct: expressed in transfected cells
Procedure: Characterization of hα4β2 Positive Allosteric Modulators Using FLIPR
The ability is determined relative to a maximal nicotine response (100 μM). The activity is determined as a fluorescence-based assay using a Fluorometric Imaging Plate Reader (FLIPR) as described below in more detail.
Full concentration/response curves are generated and EC50 values are calculated based on peak values. EC50 values (Effective Concentration) represent the concentration of the test substance, at which the nicotine-induced EC20-30 response is positively modulated such that the size of the response equals 50% of the maximal response. The maximal positively modulated response (efficacy) is determined relative to the reference (nicotine) response.

T1 sequence (P43681 29-627 limits assumed): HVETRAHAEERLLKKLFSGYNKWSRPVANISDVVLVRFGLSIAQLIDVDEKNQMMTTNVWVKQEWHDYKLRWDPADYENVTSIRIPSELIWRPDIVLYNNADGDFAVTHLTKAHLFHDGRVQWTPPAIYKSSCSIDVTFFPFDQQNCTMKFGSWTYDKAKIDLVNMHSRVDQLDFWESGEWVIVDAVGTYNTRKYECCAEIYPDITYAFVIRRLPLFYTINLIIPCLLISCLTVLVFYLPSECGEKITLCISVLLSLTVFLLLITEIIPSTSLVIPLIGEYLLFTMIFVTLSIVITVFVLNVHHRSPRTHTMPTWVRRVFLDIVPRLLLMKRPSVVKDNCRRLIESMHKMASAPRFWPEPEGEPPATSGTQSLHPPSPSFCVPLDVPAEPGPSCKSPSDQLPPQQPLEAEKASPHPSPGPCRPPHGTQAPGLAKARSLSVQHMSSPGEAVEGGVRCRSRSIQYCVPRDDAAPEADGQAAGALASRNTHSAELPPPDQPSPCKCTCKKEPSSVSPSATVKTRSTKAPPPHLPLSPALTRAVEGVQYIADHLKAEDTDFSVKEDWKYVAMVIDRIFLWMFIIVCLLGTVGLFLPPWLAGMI
T1 sequence (P17787 26-502): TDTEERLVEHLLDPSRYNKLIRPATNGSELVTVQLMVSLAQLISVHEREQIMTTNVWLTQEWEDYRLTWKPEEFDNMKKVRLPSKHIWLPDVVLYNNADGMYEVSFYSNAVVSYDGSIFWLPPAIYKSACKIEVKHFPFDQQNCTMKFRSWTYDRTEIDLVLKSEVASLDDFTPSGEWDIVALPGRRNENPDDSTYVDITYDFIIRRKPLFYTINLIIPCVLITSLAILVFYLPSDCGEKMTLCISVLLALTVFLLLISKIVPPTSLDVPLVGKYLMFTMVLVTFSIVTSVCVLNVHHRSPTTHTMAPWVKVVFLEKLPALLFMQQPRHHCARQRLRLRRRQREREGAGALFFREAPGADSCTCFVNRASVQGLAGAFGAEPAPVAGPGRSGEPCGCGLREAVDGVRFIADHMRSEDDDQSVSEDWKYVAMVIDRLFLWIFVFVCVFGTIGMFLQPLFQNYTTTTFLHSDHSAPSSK

Structure (SMILES)	Efficacy Response relative to Nicotine (%) [1] [%]	EC50 [1] [nM]	melting point [°C]
N#Cc1cccc(-c2nnc(-c3cccnc3)o2)c1 [Compound 7.1, 3-(5-Pyridine-3-yl-[1,3,4]oxadiazol-2-yl)-benzonitrile]	133	520	
O=[N+]([O-])c1ccc(-c2nnc(-c3cccnc3)o2)o1 [Compound 7.2, 3-(5-{5-Nitro-furan-2-yl}-[1,3,4]oxadiazol-2-yl)-pyridine]			165 to 168
N#Cc1ccc(-c2nnc(-c3cccnc3)o2)s1 [Compound 7.6]	153	980	
N#Cc1cccc(-c2nnc(-c3cccc(C#N)c3)s2)c1 [Compound 8.2, 3-(5-{3-Cyano-phenyl}-[1,3,4]thiadiazol-2-yl)-benzonitrile]			217 to 223
